Results reported in patent publication US20010011063A1, “Substituted 2,4-diamino-1,3,5-triazines, processes for their preparation and their use as herbicides and plant growth regulators” (priority 1999, published 2001).

Legend:
Assay type in all cases: in vivo
[1] = system: Stellaria media, Lolium multiflorum, Amaranthus retroflexus, Sinapis alba, Avena sativa and Settaria viridis; experiment: Pre-emergence effect on weeds (greenhouse pot test); conditions: application rate of 1 kg or less of active substance per hectare; visually scored after 3 to 4 weeks by comparison with untreated controls
Excerpt: Seeds or rhizome pieces of mono and dicotyledonous weed plants are placed in sandy loam soil in plastic pots and covered with soil. The compounds according to the invention which are formulated in the form of wettable powders or emulsion concentrates are then applied to the soil cover in the form of aqueous suspensions or emulsions at an application rate of 600 to 800 l of water/ha (converted), in various dosages.

[2] = system: Sinapis alba, Echinochloa crus-galli, Lolium multiforum, Stellaria media, Cyperus iria, Amaranthus retroflexus, Settaria viridis and Avena sativa; experiment: Post-emergence effect on weeds (greenhouse pot test); conditions: application rate of 1 kg or less of active substance per hectare; treated at the three-leaf stage; scored visually after about 3 to 4 weeks vs untreated controls
Procedure: Seeds or rhizome pieces of mono- and dicotyledonous weeds are placed in sandy loam soil in plastic pots, covered with soil and grown in a greenhouse under good growth conditions. Three weeks after sowing, the test plants are treated at the three-leaf stage. The compounds according to the invention, formulated as wettable powders or emulsion concentrates, are sprayed, at various dosages, onto the green parts of the plants at an application rate of 600 to 800 l of water/ha (converted). After the test plants had remained in the greenhouse for about 3 to 4 weeks under optimum growth conditions, the effect of the preparations is scored visually by comparison with untreated controls. The agents according to the invention also have good herbicidal activity post-emergence against a broad spectrum of economically important weed grasses and broad-leaved weeds.

[3] = system: Cyperus monti, Echinochloa crus-galli and Sagitaria pygmaea; experiment: Action on harmful plants in rice (paddy rice conditions); conditions: poured into the dammed water, visual scoring about three weeks after application; further: test concentration or dose not given here
Excerpt: Transplanted and sown rice and also typical rice weeds (gramineous and broad-leaved) are cultivated in closed plastic pots in a greenhouse to the three-leaf stage (Echinochloa crus-galli 1.5-leaf) under paddy rice conditions (height of water: 2-3 cm). This is followed by treatment with the compounds according to the invention. For this purpose, the formulated active compounds are suspended, dissolved or emulsified in water and applied by pouring them into the dammed water around the test plants in different dosages.

CC(C)c1nc(N)nc(NC(CCCc2ccccc2)C2CCC2)n1 (stereo not drawn) [Example 4-58]
very good herbicidal activity: herbicidal activity pre-emergence against harmful plants [1] | herbicidal activity post-emergence against harmful plants [2] | herbicidal activity against harmful plants which are typical for rice crops [3]

CC(C)Cc1nc(N)nc(NC(CCCc2ccccc2)C2CCC2)n1 (stereo not drawn) [Example 4-59]
very good herbicidal activity: herbicidal activity pre-emergence against harmful plants [1] | herbicidal activity post-emergence against harmful plants [2] | herbicidal activity against harmful plants which are typical for rice crops [3]

CC(C)(F)c1nc(N)nc(NC(CCCc2ccccc2)C2CCC2)n1 (stereo not drawn) [Example 4-64]
very good herbicidal activity: herbicidal activity pre-emergence against harmful plants [1] | herbicidal activity post-emergence against harmful plants [2] | herbicidal activity against harmful plants which are typical for rice crops [3]

CC(C)c1nc(N)nc(NC(CCCc2cccc(Cl)c2)C2CCC2)n1 (stereo not drawn) [Example 4-67]
very good herbicidal activity: herbicidal activity pre-emergence against harmful plants [1] | herbicidal activity post-emergence against harmful plants [2] | herbicidal activity against harmful plants which are typical for rice crops [3]

CC(C)(F)c1nc(N)nc(NC(CCCc2cccc(Cl)c2)C2CCC2)n1 (stereo not drawn) [Example 4-68]
very good herbicidal activity: herbicidal activity pre-emergence against harmful plants [1] | herbicidal activity post-emergence against harmful plants [2] | herbicidal activity against harmful plants which are typical for rice crops [3]

Cc1cccc(CCCC(Nc2nc(N)nc(C(C)C)n2)C2CCC2)c1 (stereo not drawn) [Example 4-71]
very good herbicidal activity: herbicidal activity pre-emergence against harmful plants [1] | herbicidal activity post-emergence against harmful plants [2] | herbicidal activity against harmful plants which are typical for rice crops [3]

Cc1cccc(CCCC(Nc2nc(N)nc(C(C)(C)F)n2)C2CCC2)c1 (stereo not drawn) [Example 4-72]
very good herbicidal activity: herbicidal activity pre-emergence against harmful plants [1] | herbicidal activity post-emergence against harmful plants [2] | herbicidal activity against harmful plants which are typical for rice crops [3]

COc1cccc(CCCC(Nc2nc(N)nc(C(C)C)n2)C2CCC2)c1 (stereo not drawn) [Example 4-75]
very good herbicidal activity: herbicidal activity pre-emergence against harmful plants [1] | herbicidal activity post-emergence against harmful plants [2] | herbicidal activity against harmful plants which are typical for rice crops [3]

COc1cccc(CCCC(Nc2nc(N)nc(C(C)(C)F)n2)C2CCC2)c1 (stereo not drawn) [Example 4-76]
very good herbicidal activity: herbicidal activity pre-emergence against harmful plants [1] | herbicidal activity post-emergence against harmful plants [2] | herbicidal activity against harmful plants which are typical for rice crops [3]

CC(C)Cc1nc(N)nc(NC(Cc2ccccc2)CC2CC2)n1 (stereo not drawn) [Example 5-1]
very good herbicidal activity: herbicidal activity pre-emergence against harmful plants [1] | herbicidal activity post-emergence against harmful plants [2] | herbicidal activity against harmful plants which are typical for rice crops [3]

CC(C)(F)c1nc(N)nc(NC(Cc2ccccc2)CC2CC2)n1 (stereo not drawn) [Example 5-2]
very good herbicidal activity: herbicidal activity pre-emergence against harmful plants [1] | herbicidal activity post-emergence against harmful plants [2] | herbicidal activity against harmful plants which are typical for rice crops [3]

CC(C)c1nc(N)nc(NC(Cc2ccccc2)CC2CC2)n1 (stereo not drawn) [Example 5-3]
very good herbicidal activity: herbicidal activity pre-emergence against harmful plants [1] | herbicidal activity post-emergence against harmful plants [2] | herbicidal activity against harmful plants which are typical for rice crops [3]

CC(C)c1nc(N)nc(NC(CCCCc2ccccc2)C2CC2)n1 (stereo not drawn) [Example 5-43]
very good herbicidal activity: herbicidal activity pre-emergence against harmful plants [1] | herbicidal activity post-emergence against harmful plants [2] | herbicidal activity against harmful plants which are typical for rice crops [3]

CC(C)(F)c1nc(N)nc(NC(CCCCc2ccccc2)C2CC2)n1 (stereo not drawn) [Example 5-44]
very good herbicidal activity: herbicidal activity pre-emergence against harmful plants [1] | herbicidal activity post-emergence against harmful plants [2] | herbicidal activity against harmful plants which are typical for rice crops [3]

CC(C)(F)c1nc(N)nc(NC(CCCCc2ccccc2)C2CCC2)n1 (stereo not drawn) [Example 5-47]
very good herbicidal activity: herbicidal activity pre-emergence against harmful plants [1] | herbicidal activity post-emergence against harmful plants [2] | herbicidal activity against harmful plants which are typical for rice crops [3]

CC(C)Cc1nc(N)nc(N[C@H](Cc2ccccc2)CC2CC2)n1 [Example 6-1]
very good herbicidal activity: herbicidal activity pre-emergence against harmful plants [1] | herbicidal activity post-emergence against harmful plants [2] | herbicidal activity against harmful plants which are typical for rice crops [3]

CC(C)(F)c1nc(N)nc(N[C@H](Cc2ccccc2)CC2CC2)n1 [Example 6-2]
very good herbicidal activity: herbicidal activity pre-emergence against harmful plants [1] | herbicidal activity post-emergence against harmful plants [2] | herbicidal activity against harmful plants which are typical for rice crops [3]

CC(C)c1nc(N)nc(N[C@H](Cc2ccccc2)CC2CC2)n1 [Example 6-3]
very good herbicidal activity: herbicidal activity pre-emergence against harmful plants [1] | herbicidal activity post-emergence against harmful plants [2] | herbicidal activity against harmful plants which are typical for rice crops [3]

CC(C)c1nc(N)nc(N[C@H](CCCCc2ccccc2)C2CC2)n1 [Example 6-43]
very good herbicidal activity: herbicidal activity pre-emergence against harmful plants [1] | herbicidal activity post-emergence against harmful plants [2] | herbicidal activity against harmful plants which are typical for rice crops [3]

CC(C)(F)c1nc(N)nc(N[C@H](CCCCc2ccccc2)C2CC2)n1 [Example 6-44]
very good herbicidal activity: herbicidal activity pre-emergence against harmful plants [1] | herbicidal activity post-emergence against harmful plants [2] | herbicidal activity against harmful plants which are typical for rice crops [3]

CC(C)(F)c1nc(N)nc(N[C@H](CCCCc2ccccc2)C2CCC2)n1 [Example 6-47]
very good herbicidal activity: herbicidal activity pre-emergence against harmful plants [1] | herbicidal activity post-emergence against harmful plants [2] | herbicidal activity against harmful plants which are typical for rice crops [3]
